Among the data in ChEMBL document CHEMBL2413041, “In search of potent and selective inhibitors of neuronal nitric oxide synthase with more simple structures” (Bioorg Med Chem, 2013) are Ki and Ratio Ki values, retold here.

The target of one assay is Nitric oxide synthase 1 (Rattus norvegicus, UniProt P29476). The experiment in a line: Inhibition of recombinant rat nNOS expressed in Escherichia coli using L-arginine as substrate assessed as formation of nitric oxide measured up to 60 secs by hemoglobin capture assay.
Assay [1] in a line: Selectivity ratio of Ki for recombinant bovine eNOS to Ki for recombinant rat nNOS.
The nature of assay [2]: Selectivity ratio of Ki for recombinant mouse macrophage iNOS to Ki for recombinant rat nNOS.
Assay [3] has as its target T1, Nitric oxide synthase, inducible (Mus musculus, UniProt P29477).
T1 sequence (P29477 whole entry): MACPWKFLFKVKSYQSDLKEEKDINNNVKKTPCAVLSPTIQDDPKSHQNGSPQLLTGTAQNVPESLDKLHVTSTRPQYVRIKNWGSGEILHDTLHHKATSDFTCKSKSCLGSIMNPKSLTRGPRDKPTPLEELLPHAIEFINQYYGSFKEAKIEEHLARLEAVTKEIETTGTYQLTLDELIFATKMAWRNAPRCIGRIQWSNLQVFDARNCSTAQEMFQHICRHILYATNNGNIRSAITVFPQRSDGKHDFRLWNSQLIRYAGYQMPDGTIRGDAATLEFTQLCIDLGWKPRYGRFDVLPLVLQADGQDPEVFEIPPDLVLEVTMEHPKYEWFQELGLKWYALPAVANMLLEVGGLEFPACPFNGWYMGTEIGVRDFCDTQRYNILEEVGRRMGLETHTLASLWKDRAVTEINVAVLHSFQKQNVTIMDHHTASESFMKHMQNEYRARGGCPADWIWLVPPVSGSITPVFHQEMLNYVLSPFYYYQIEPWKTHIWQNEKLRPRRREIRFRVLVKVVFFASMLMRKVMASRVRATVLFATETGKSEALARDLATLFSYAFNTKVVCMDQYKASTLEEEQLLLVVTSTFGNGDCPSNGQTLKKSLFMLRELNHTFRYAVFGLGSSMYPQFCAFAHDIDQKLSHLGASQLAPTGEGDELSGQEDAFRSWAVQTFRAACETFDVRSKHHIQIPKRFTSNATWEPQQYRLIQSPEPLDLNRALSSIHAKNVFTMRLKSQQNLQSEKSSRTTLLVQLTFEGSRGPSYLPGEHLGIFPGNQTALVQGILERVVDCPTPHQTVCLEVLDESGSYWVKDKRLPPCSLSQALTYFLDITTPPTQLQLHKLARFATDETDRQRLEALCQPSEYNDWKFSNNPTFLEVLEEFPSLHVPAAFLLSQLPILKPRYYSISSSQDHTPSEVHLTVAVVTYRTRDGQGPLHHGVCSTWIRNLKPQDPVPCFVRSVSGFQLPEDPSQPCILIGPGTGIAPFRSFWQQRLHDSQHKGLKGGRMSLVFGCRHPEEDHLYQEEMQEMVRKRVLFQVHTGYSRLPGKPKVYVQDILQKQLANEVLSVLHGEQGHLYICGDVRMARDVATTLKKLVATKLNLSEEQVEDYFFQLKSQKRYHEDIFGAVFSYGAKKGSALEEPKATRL
Description: Inhibition of recombinant mouse macrophage iNOS expressed in Escherichia coli using L-arginine as substrate assessed as formation of nitric oxide measured up to 60 secs by hemoglobin capture assay.

The target in the next assay is T2, Nitric oxide synthase 3 (Bos taurus, UniProt P29473).
T2 sequence (P29473 whole entry): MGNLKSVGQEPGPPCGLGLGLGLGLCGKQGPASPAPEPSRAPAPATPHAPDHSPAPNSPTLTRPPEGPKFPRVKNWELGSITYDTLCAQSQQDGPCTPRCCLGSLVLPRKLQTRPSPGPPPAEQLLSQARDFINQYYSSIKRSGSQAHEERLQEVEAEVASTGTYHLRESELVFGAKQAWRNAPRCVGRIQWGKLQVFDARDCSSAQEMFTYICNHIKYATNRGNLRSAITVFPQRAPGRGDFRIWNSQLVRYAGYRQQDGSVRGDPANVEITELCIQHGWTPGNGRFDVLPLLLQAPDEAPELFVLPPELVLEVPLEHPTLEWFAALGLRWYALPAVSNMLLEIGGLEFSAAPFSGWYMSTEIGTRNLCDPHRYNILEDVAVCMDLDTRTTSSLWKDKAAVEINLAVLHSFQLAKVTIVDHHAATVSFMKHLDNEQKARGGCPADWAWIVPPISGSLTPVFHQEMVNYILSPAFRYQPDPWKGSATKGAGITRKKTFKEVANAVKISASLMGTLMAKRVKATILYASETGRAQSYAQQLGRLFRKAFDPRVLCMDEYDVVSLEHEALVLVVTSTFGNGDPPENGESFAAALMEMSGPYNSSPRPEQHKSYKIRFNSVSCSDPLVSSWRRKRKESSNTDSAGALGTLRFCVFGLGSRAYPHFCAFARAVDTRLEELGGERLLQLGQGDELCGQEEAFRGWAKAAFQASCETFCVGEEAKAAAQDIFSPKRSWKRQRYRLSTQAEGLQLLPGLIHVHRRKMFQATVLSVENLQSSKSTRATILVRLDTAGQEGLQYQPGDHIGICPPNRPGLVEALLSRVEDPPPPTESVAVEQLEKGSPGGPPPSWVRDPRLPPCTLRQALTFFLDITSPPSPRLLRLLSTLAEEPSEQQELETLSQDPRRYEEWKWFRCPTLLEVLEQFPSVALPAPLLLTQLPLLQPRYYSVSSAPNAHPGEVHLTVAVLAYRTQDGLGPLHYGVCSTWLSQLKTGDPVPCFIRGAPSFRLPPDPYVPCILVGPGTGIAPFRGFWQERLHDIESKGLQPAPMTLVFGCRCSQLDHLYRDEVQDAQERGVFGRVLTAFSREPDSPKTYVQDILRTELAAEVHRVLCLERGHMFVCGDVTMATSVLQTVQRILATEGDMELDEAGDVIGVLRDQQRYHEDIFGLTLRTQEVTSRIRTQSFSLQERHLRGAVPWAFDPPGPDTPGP
Description: Inhibition of recombinant bovine eNOS expressed in Escherichia coli using L-arginine as substrate assessed as formation of nitric oxide measured up to 60 secs by hemoglobin capture assay.

Chain of Nitric oxide synthase 1 (P29476 whole entry): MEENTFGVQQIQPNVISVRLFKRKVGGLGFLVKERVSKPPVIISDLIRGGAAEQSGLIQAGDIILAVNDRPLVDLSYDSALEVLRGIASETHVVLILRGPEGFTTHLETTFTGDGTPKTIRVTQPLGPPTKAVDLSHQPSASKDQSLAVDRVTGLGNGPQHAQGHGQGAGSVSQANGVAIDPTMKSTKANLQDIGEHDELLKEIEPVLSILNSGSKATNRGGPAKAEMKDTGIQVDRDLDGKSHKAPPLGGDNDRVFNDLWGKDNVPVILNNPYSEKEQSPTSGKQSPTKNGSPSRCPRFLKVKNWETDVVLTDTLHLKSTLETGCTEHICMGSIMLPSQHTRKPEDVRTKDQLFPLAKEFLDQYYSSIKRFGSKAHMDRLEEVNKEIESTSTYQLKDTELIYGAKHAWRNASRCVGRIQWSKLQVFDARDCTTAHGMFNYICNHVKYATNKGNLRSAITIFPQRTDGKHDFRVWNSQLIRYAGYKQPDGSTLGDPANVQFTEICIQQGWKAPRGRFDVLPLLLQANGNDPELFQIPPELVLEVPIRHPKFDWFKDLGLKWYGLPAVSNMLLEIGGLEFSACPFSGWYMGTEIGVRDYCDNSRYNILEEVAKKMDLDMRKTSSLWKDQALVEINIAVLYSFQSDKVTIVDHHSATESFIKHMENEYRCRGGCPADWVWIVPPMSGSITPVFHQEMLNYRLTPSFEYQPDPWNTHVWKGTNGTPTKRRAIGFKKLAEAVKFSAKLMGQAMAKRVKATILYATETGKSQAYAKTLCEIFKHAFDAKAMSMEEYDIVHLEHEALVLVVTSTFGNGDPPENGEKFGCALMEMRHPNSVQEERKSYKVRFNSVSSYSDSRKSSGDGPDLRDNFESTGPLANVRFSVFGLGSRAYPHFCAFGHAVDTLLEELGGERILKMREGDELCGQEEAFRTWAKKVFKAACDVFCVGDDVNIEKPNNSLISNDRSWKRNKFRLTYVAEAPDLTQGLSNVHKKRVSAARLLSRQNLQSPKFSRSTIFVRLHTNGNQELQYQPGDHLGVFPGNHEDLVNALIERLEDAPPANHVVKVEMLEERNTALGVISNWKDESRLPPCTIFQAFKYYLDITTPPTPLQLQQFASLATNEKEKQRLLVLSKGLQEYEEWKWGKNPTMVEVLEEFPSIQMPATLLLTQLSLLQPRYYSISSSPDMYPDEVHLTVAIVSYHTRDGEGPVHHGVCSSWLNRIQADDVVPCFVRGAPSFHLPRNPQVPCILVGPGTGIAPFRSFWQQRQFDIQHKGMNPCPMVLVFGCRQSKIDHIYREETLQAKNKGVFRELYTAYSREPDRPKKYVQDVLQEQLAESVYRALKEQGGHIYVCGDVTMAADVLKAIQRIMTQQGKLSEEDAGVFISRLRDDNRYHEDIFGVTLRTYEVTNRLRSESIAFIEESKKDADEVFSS

Broadly, the Ki is a dissociation constant, usually derived from enzyme kinetics or from competition with a known ligand. Consider `Cc1cc(N)nc(COc2ccccc2-c2ccccc2OCC2CCNCC2)c1`, for which the inhibition constant (Ki) on Nitric oxide synthase 1 came out at 4.23 µM.

Consider `Cc1cc(N)nc(COc2cccc(OCCCN)c2)c1`, for which the Ratio Ki in assay [1] was 298; in assay [2], 140.

As to `Cc1cc(N)nc(CCCCCCc2cc(C)cc(N)n2)c1`, the Ratio Ki in assay [1] amounted to 86; in assay [2] it was 54. The Ki in assay [3] stood at 1.8 µM; at Nitric oxide synthase 3 it was 2.84 µM; at Nitric oxide synthase 1, 0.033 µM.

For `Cc1cc(N)nc(COc2cccc(OCc3ccncc3)c2)c1`, the Ratio Ki turned out to be 102 in assay [1] and 44 in assay [2].

As for `Cc1cc(N)nc(CCCCCCCc2cc(C)cc(N)n2)c1`, the Ratio Ki in assay [1] and in assay [2] was 25 each time. The values for the Ki (in assay [3]; at Nitric oxide synthase 3; at Nitric oxide synthase 1) were 2.19 µM, 2.15 µM and 0.086 µM, respectively.

Take `Cc1cc(N)nc(COCc2cccc(CNCCc3cccc(F)c3)n2)c1`: the Ratio Ki turned out to be 21 in assay [1] and 31 in assay [2]. Moreover, the Ki in assay [3] amounted to 8.43 µM; at Nitric oxide synthase 3, 5.62 µM; at Nitric oxide synthase 1, 0.27 µM.

On to `Cc1cc(N)nc(CCCCCc2cc(C)cc(N)n2)c1`, for which the inhibition constant (Ki) in assay [3] came out at 0.375 µM.

Regarding `Cc1cc(N)nc(COc2cccc(NCCc3cccc(F)c3)c2)c1`, the Ki on Nitric oxide synthase 1 stood at 2.16 µM.

Take `Cc1cc(N)nc(COc2cccc(OCC3CCNCC3)c2)c1`: the Ratio Ki is 239 in assay [1] and 146 in assay [2].

Take `Cc1cc(N)nc(COc2ccccc2-c2ccccc2OCc2ccncc2)c1`: the Ki at Nitric oxide synthase 1 amounted to 3.85 µM.
